Assay results: patent publication US11912710B2 (UPPTHERA, INC., priority 2021, dated 2024)
pIC50: −log10 of the molar value.

Columns and labels:
Type in all cases: cell-based
MRC-5 cell line = assay: Cell viability assay (cytotoxicity) for MRC-5 cell line; settings: Homo sapiens, MRC5, 120 h; MRC-5 normal cell line, 5 days, EZ-Cytox, 10000 nM to 1.52 nM; read-out: Activity: IC50 value to MRC-5 cell line (Exemplary Compounds)
Procedure: 4. Cell Viability Assay for MRC-5 Cell Line
(1) Culture of MRC-5 Cell Line
Passage of cultured cells was maintained within P15.
(2) Treatment of Compounds of the Present Invention
Then, it was cultured in 37° C.
(3) Cytotoxicity Experiment
CO2 incubator for 4 hours.
Cell Viability Assay for MRC-5 cell line

PLK1 = biological target: T1, PLK1 (Homo sapiens, UniProt P53350); assay: Luciferase assay for PLK1 in HeLa LgBit (Plk1-HiBit KI) cell line; settings: 300 nM compound, luminescence after 9 hours, read-out: Activity: ratio of the luminescense value of compound treatment group to DMSO treatment group
T1 construct: endogenous in cells; host or cells: HeLa LgBit (Plk1-HiBit KI): HeLa cells stably expressing LgBit, with HiBit knocked into the endogenous Plk1 locus by CRISPR/Cas9
T1 sequence (P53350 whole entry): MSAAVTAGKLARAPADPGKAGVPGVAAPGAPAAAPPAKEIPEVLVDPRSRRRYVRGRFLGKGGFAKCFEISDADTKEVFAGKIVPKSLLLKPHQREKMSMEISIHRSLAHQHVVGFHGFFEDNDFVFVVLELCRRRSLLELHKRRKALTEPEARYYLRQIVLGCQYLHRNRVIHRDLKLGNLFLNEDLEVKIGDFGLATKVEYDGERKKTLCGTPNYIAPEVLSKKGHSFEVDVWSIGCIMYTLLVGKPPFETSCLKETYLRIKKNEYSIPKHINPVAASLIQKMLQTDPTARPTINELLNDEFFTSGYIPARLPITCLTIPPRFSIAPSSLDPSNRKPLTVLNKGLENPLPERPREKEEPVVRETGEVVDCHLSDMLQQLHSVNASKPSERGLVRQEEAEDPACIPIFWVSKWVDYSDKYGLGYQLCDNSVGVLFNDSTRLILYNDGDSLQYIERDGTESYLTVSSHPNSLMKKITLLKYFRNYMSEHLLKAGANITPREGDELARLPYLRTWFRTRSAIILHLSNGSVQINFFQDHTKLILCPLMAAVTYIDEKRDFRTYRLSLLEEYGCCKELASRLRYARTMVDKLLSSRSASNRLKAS
Procedure: 2. Luciferase Assay for PLK1
(1) Preparation and Culture of HeLa LgBit (Plk1-HiBit KI) Cell Line
A HeLa cell line in which the LgBit vector was transfected and expressed stably was prepared. Then, after constructing gRNA and donor to express the HiBit amino acid sequence behind the C-terminal of the Plk1 gene, which was inherent in the cell, it was inserted into the cell together with a vector capable of expressing CRISPR/Cas9. Only the cells in which the insertion was completed and knock-in had progressed were selected, sub-cultured and used.
(2) Treatment of Compounds of the Present Invention and Method of Luciferase Assay
In the case of HeLa LgBit (Plk1-HiBit KI), the compounds were treated after being released after thymidine block, and the process was as follows. Thymidine (Sigma-Aldrich Cat. No. T9250-5G) was completely dissolved in DW and used in the experiment. For thymidine block, the products were treated with 2 mM of thymidine and then incubated for 24 hours. For release and chemical treatment, the medium was suctioned and washed with 1×PBS. TrypLE™ was added and incubated in 37° C. CO2 incubator for 5 min. Cells neutralized by adding complete media were counted through a counter. For each well of a 96-well culture plate (SPL), 3.3×10^4 cells and a total medium volume of 150 μL were seeded and incubated in a CO2 incubator.
Each cell line was incubated in a CO2 incubator for 18 hours, and Endurazine was added to each well to make up 4% of the total volume. After adding the compound of the present invention in a 96-well white plate (SPL) to a concentration of 300 nM, the wavelength of the plate reader (BMG Labtech, CLARIOstar Plus) was set to […], and then the luminescence was tracked in real time.
In Table 2, Activity represents the ratio of the luminescense value of each Exemplary Compound treatment group to DMSO treatment group (+++: <0.3, ++<0.6, +<0.7).

NCI-H526 cell line = assay: Cell viability assay for H526 cell line; settings: Homo sapiens, NCI-H526, 120 h; H526 cells, 5 days, EZ-Cytox, 3000 nM to 0.46 nM
Procedure: 3. Cell Viability Assay for H526 Cell Line
(1) Culture of NCI-H526 Cell Line
(2) Treatment of Compounds of the Present Invention and Method of Cell Viability Assay
After treating the compound to each well to make the total volume of 200 μL, it was cultured in a CO2 incubator (Thermo Fisher Science, Cat. No. 4111) for 5 days.
The absorbance of the completely cultured sample was measured by setting the wavelength of a plate reader (BMG Labtech, CLARIOstar Plus) to […], and was measured after shaking for 3 minutes in a plate reader before measurement.
In Table 3, Activity represents IC50 value of each Exemplary Compound treatment group to H526 cell line (A: <30 nM, B: <50 nM, C: <100 nM, D: <200 nM, E: <400 nM).

Row | remaining activity at 0.3 µM (PLK1) | SMILES | pIC50 (MRC-5 cell line) | pIC50 (NCI-H526 cell line)
1 | < 30% | COc1cc(C(=O)NC2CCN(C(=O)CC3CCN(c4ccc(C5CCC(=O)NC5=O)cc4F)CC3)CC2)ccc1Nc1ncc2c(n1)N(C1CCCC1)CC(F)(F)C(=O)N2C (stereo not drawn) [Compound 10, 4-((9-cyclopentyl-7,7-difluoro-5-methyl-6-oxo-6,7,8,9-tetrahydro-5H-pyrimido[4,5-b][1,4]diazepin-2-yl)amino)-N-(1-(2-(1-(4-(2,6-dioxopiperidin-3-yl)-2-fluorophenyl)piperidin-4-yl)acetyl)piperidin-4-yl)-3-methoxybenzamide] | < 5.00 | > 7.30
2 | < 30% | COc1cc(C(=O)NC2CCN(C(=O)CCN3CCN(c4ccc(C5CCC(=O)NC5=O)cc4F)CC3)CC2)ccc1Nc1ncc2c(n1)N(C1CCCC1)CC(F)(F)C(=O)N2C (stereo not drawn) [Compound 11, 4-((9-cyclopentyl-7,7-difluoro-5-methyl-6-oxo-6,7,8,9-tetrahydro-5H-pyrimido[4,5-b][1,4]diazepin-2-yl)amino)-N-(1-(3-(4-(4-(2,6-dioxopiperidin-3-yl)-2-fluorophenyl)piperazin-1-yl)propanoyl)piperidin-4-yl)-3-methoxybenzamide] | < 5.00 | > 7.52
3 | < 30% | COc1cc(C(=O)NN2CCC(CCN3CCN(c4ccc(C5CCC(=O)NC5=O)cc4F)CC3)CC2)ccc1Nc1ncc2c(n1)N(C1CCCC1)CC(F)(F)C(=O)N2C (stereo not drawn) [Compound 12, 4-((9-cyclopentyl-7,7-difluoro-5-methyl-6-oxo-6,7,8,9-tetrahydro-5H-pyrimido[4,5-b][1,4]diazepin-2-yl)amino)-N-(4-(2-(4-(4-(2,6-dioxopiperidin-3-yl)-2-fluorophenyl)piperazin-1-yl)ethyl)piperidin-1-yl)-3-methoxybenzamide] | 4.70 | > 7.52
4 | < 60% | COc1cc(C(=O)NC2CCCN(C(=O)CN3CCN(c4ccc(C5CCC(=O)NC5=O)cc4F)CC3)C2)ccc1Nc1ncc2c(n1)N(C1CCCC1)CC(F)(F)C(=O)N2C (stereo not drawn) [Compound 13, 4-((9-cyclopentyl-7,7-difluoro-5-methyl-6-oxo-6,7,8,9-tetrahydro-5H-pyrimido[4,5-b][1,4]diazepin-2-yl)amino)-N-(1-(2-(4-(4-(2,6-dioxopiperidin-3-yl)-2-fluorophenyl)piperazin-1-yl)acetyl)piperidin-3-yl)-3-methoxybenzamide] | < 5.00 | > 7.30
5 | < 60% | COc1cc(C(=O)NC2CCCN(C(=O)CCN3CCN(c4ccc(C5CCC(=O)NC5=O)cc4F)CC3)C2)ccc1Nc1ncc2c(n1)N(C1CCCC1)CC(F)(F)C(=O)N2C (stereo not drawn) [Compound 14, 4-((9-cyclopentyl-7,7-difluoro-5-methyl-6-oxo-6,7,8,9-tetrahydro-5H-pyrimido[4,5-b][1,4]diazepin-2-yl)amino)-N-(1-(3-(4-(4-(2,6-dioxopiperidin-3-yl)-2-fluorophenyl)piperazin-1-yl)propanoyl)piperidin-3-yl)-3-methoxybenzamide] | < 5.00 | > 7.00
6 | < 30% | COc1cc(C(=O)NC2CC3(CCN(CC4CCN(c5ccc(C6CCC(=O)NC6=O)cc5F)CC4)CC3)C2)ccc1Nc1ncc2c(n1)N(C1CCCC1)CC(F)(F)C(=O)N2C (stereo not drawn) [Compound 15, 4-((9-cyclopentyl-7,7-difluoro-5-methyl-6-oxo-6,7,8,9-tetrahydro-5H-pyrimido[4,5-b][1,4]diazepin-2-yl)amino)-N-(7-((1-(4-(2,6-dioxopiperidin-3-yl)-2-fluorophenyl)piperidin-4-yl)methyl)-7-azaspiro[3.5]nonan-2-yl)-3-methoxybenzamide] | < 5.00 | > 7.52
